Data on one compound can be found in US11672792B2, “Topical formulations comprising montelukast and combinations with mussel adhesive proteins” (ENLITISA (SHANGHAI) PHARMACEUTICAL CO., LTD, priority 2017, dated 2023).

The experiment has as its system carrageenan-induced acute inflammation in subcutaneous air pouch. Kind of experiment: Air Pouch Model II (Example 2). Type of experiment: in vivo, mice. How it is done:
In Table 6, “Dex” is an abbreviation for dexamethasone and “Dopamine” is a 4 mg/mL aqueous solution of dopamine hydrochloride (Shanghai Aladdin Bio-Chem Technology Co., Ltd., Shanghai, China).
The histological specimens were analysed and an inflammation score, an activity score and a fibroplastic proliferation score were estimated as in Example 1 above and are tabulated in Table 9 below.

Where [1] appears, read: Dex 400 μg, Dopamine 2 mg, MAP 250 μg, Mon 100 μg.
Setting [2] is: doses/mouse: Dex 400 μg, Dopamine 2 mg, MAP 250 μg, Mon 100 μg.

As to `Cl.NCCc1ccc(O)c(O)c1` [Dopamine, dopamine hydrochloride], under setting [1], the Activity score stood at 1.67, the “Edema Score” value was 2.33, the Fibroplastic proliferation score was determined as 0.00 and the “IFN-γ in exudate (ELISA)” value came to 5153.02 ± 5773.45. Further, under setting [1], the “IL-6 in exudate (ELISA)” value was 1740.11 ± 765.02, the Inflammation score was found to be 2.00, the “Leukocyte count in exudate” value was 1.91e+06 mL⁻¹ and the “Lymphocyte count in exudate” value stood at 50000 mL⁻¹. Further, under setting [1], the “Monocyte count in exudate” value came out at 1.58e+06 mL⁻¹, the “Neutrophil count in exudate” value was determined as 190000 mL⁻¹ and the “Sum (of histology scores)” value is recorded as 6.00. Besides, under setting [2], the “Exudate volume” value was 2.93 ± 0.06 mL and the “Pouch Wall Weight” value was 0.44 ± 0.07 g. Further, under “histology”, the “pouch wall fibrous tissue proliferation (in words)” value is “no fibrous tissue proliferation”, the “pouch wall inflammatory / lymph cell infiltration (in words)” value was “a lot of” and the “pouch wall interstitial edema (in words)” value was “mild to moderate”.
